From patent US5444174A, “16-membered macrolide derivative having sustained antibacterial activity in plasma, synthesis intermediate thereof and process for producing the same” (Meiji Seika Kaisha, Ltd., priority 1992, dated 1995)
Converted amounts (≈) assume the structure as drawn. Read-outs that look alike come from different tables or passages of the source.

Legend:
Test in all cases: Antibacterial activity (MIC), agar plate dilution method
Assay type in all cases: cell-based
S. pneumoniae Type 1 = conditions: Streptococcus pneumoniae, TYPE1, 37° C., 20 hours, blood agar seed culture
Procedure: (§1) Antibacterial activities of the compounds of formula (I) are shown in Table 1 in terms of minimum inhibitory concentration (MIC).
(§2) Minimum inhibitory concentration was determined by the agar plate dilution method. Test strains were subjected to seed culture using Sensitivity test broth (STB, Nissui Pharmaceutical) except that the strains belonging to the genus Streptococcus, Branhamella and Haemophilus were cultured on blood agar plate. A 5 μl portion of cell suspension of the test strains having about 10^6 CFU/ml was inoculated into Sensitivity disk agar (SDA, Nissui Pharmaceutical) supplemented with 5% horse blood and incubated at 37° C. for 20 hours. Then, MIC was measured.

S. pneumoniae IP692 = conditions: Streptococcus pneumoniae, 37° C., 20 hours, blood agar seed culture
Procedure: as §1, §2

Sta. aureus MS15027 = conditions: Staphylococcus aureus, read-out: Antibacterial activity (MIC)
Procedure: as §1, §2

Sta. aureus 209P JC-1 = conditions: Staphylococcus aureus, 37° C., 20 hours
Procedure: as §1, §2

[1] = system: Sta. aureus MS15009/pMS99; conditions: Staphylococcus aureus, MS15009/PMS99, 20 h, read-out: Antibacterial activity (MIC)
Procedure: as §1, §2

B. catarrhalis W-0500 = conditions: Moraxella catarrhalis, read-out: Antibacterial activity (MIC)
Procedure: as §1, §2

[2] = system: Sta. epidermidis ATCC 14990; conditions: Staphylococcus epidermidis, read-out: Antibacterial activity (MIC)
Procedure: as §1, §2

S. Pyogenes Cook = conditions: Streptococcus pyogenes, 37° C., 20 hours, blood agar seed culture
Procedure: as §1, §2

[3] = system: Sta. aureus MS15009/pMS98; conditions: Staphylococcus aureus, MS15009/PMS98, 20 h, read-out: Antibacterial activity (MIC)
Procedure: as §1, §2

Sta. aureus M133 = conditions: Staphylococcus aureus, read-out: Antibacterial activity (MIC)
Procedure: as §1, §2

Sta. aureus MS15026 = conditions: Staphylococcus aureus, 37° C., 20 hours
Procedure: as §1, §2

B. catarrhalis W-0506 = conditions: Moraxella catarrhalis, read-out: Antibacterial activity (MIC)
Procedure: as §1, §2

E. coli NIHJ JC-2 = conditions: Escherichia coli, NIHJJC2, 37° C., 20 hours
Procedure: as §1, §2

Ent. faecalis W-73 = conditions: Enterococcus faecalis, W73, 37° C., 20 hours
Procedure: as §1, §2

K. pneumoniae PC1602 = conditions: Klebsiella pneumoniae, 37° C., 20 hours
Procedure: as §1, §2

H. influenza 9334 = conditions: 37° C., 20 hours, blood agar seed culture
Procedure: as §1, §2

M. luteus ATCC 9341 = conditions: Micrococcus luteus, ATCC9341, 37° C., 20 hours
Procedure: as §1, §2

Sta. aureus M126 = conditions: Staphylococcus aureus, 37° C., 20 hours
Procedure: as §1, §2

[4] = ATCC14990, 37° C., 20 hours, Sta. epidermidis ATCC 14990
[5] = W0506, 37° C., 20 hours, blood agar seed culture, B. catarrhalis W-0506
[6] = 37° C., 20 hours, Sta. aureus MS15027
[7] = W0500, 37° C., 20 hours, blood agar seed culture, B. catarrhalis W-0500
[8] = 37° C., 20 hours, Sta. aureus M133

SMILES | MIC (S. pneumoniae Type 1) [µg/mL] | MIC (S. pneumoniae IP692) [µg/mL] | MIC (Sta. aureus MS15027; MS15027, 20 h) [µg/mL] | MIC (Sta. aureus 209P JC-1) [µg/mL] | MIC [1] [µg/mL] | MIC (B. catarrhalis W-0500; W0500, 20 h) [µg/mL] | MIC (S. Pyogenes Cook) [µg/mL] | MIC [3] [µg/mL] | MIC (Sta. aureus MS15026) [µg/mL] | MIC (E. coli NIHJ JC-2) [µg/mL] | MIC (Ent. faecalis W-73) [µg/mL] | MIC (K. pneumoniae PC1602) [µg/mL] | MIC (H. influenza 9334) [µg/mL] | MIC (M. luteus ATCC 9341) [µg/mL] | MIC (Sta. aureus M126) [µg/mL] | MIC [2, 4] [µg/mL] | MIC (B. catarrhalis W-0506; [5]) [µg/mL] | MIC (Sta. aureus MS15027; [6]) [µg/mL] | MIC (B. catarrhalis W-0500; [7]) [µg/mL] | MIC (Sta. aureus M133; [8]) [µg/mL] | other results
CCCCCCO[C@H]1[C@H](C)O[C@@H](O[C@H]2[C@H](N(C)C)[C@@H](O)[C@H](O[C@H]3[C@@H](CC=O)C[C@@H](C)C(=O)/C=C/C=C/C[C@@H](C)OC(=O)C[C@@H](OC(=O)CC)[C@@H]3OC)O[C@@H]2C)C[C@@]1(C)OC [Compound (42)] | 0.2 (≈ 0.234 µM) | 0.2 (≈ 0.234 µM) | 1.56 (≈ 1.83 µM) | 0.78 (≈ 0.913 µM) | > 100 | 1.56 (≈ 1.83 µM) | 0.2 (≈ 0.234 µM) | 1.56 (≈ 1.83 µM) | > 100 | > 100 | 6.25 (≈ 7.32 µM) | > 100 | 12.5 (≈ 14.6 µM) | 0.1 (≈ 0.117 µM) | > 100 | – | – | – | – | – | MIC ([2]; ATCC14990, 20 h): 1.56 µg/mL (≈ 1.83 µM); MIC (Sta. aureus M133; M133, 20 h): 1.56 µg/mL (≈ 1.83 µM); MIC (B. catarrhalis W-0506; W0506, 20 h): 1.56 µg/mL (≈ 1.83 µM)
C=CCO[C@H]1[C@H](C)O[C@@H](O[C@H]2[C@H](N(C)C)[C@@H](O)[C@H](O[C@H]3[C@@H](CC=O)C[C@@H](C)C(=O)/C=C/C=C/C[C@@H](C)OC(=O)C[C@@H](OC(=O)CC)[C@@H]3OC)O[C@@H]2C)C[C@@]1(C)OC [Compound (39)] | 1.56 (≈ 1.93 µM) | 1.56 (≈ 1.93 µM) | 12.5 (≈ 15.4 µM) | 3.13 (≈ 3.86 µM) | > 100 | 12.5 (≈ 15.4 µM) | 1.56 (≈ 1.93 µM) | 12.5 (≈ 15.4 µM) | > 100 | > 100 | 6.25 (≈ 7.72 µM) | > 100 | – | 0.39 (≈ 0.481 µM) | > 100 | 25 (≈ 30.9 µM) | 6.25 (≈ 7.72 µM) | – | – | – | MIC (Sta. aureus M133; M133, 20 h): 12.5 µg/mL (≈ 15.4 µM)
CCC(=O)O[C@@H]1CC(=O)O[C@H](C)C/C=C/C=C/C(=O)[C@H](C)C[C@H](CC=O)[C@H](O[C@@H]2O[C@H](C)[C@@H](O[C@H]3C[C@@](C)(OC)[C@@H](OCC=C(C)C)[C@H](C)O3)[C@H](N(C)C)[C@H]2O)[C@H]1OC [Compound (40)] | 0.39 (≈ 0.465 µM) | 0.39 (≈ 0.465 µM) | – | 0.78 (≈ 0.931 µM) | > 100 | – | 0.2 (≈ 0.239 µM) | 0.78 (≈ 0.931 µM) | > 100 | > 100 | 3.13 (≈ 3.73 µM) | > 100 | 12.5 (≈ 14.9 µM) | 0.1 (≈ 0.119 µM) | > 100 | 3.13 (≈ 3.73 µM) | 1.56 (≈ 1.86 µM) | 1.56 (≈ 1.86 µM) | 1.56 (≈ 1.86 µM) | 1.56 (≈ 1.86 µM) | –
CCC(=O)O[C@@H]1CC(=O)O[C@H](C)C/C=C/C=C/C(=O)[C@H](C)C[C@H](CC=O)[C@H](O[C@@H]2O[C@H](C)[C@@H](O[C@H]3C[C@@](C)(OC)[C@@H](OCc4ccccc4)[C@H](C)O3)[C@H](N(C)C)[C@H]2O)[C@H]1OC [Compound (44)] | 0.2 (≈ 0.233 µM) | 0.2 (≈ 0.233 µM) | – | 0.2 (≈ 0.233 µM) | > 100 | – | 0.2 (≈ 0.233 µM) | 0.78 (≈ 0.907 µM) | > 100 | > 100 | 1.56 (≈ 1.81 µM) | > 100 | 6.25 (≈ 7.27 µM) | 0.1 (≈ 0.116 µM) | > 100 | 3.13 (≈ 3.64 µM) | 1.56 (≈ 1.81 µM) | 1.56 (≈ 1.81 µM) | 1.56 (≈ 1.81 µM) | 1.56 (≈ 1.81 µM) | –
CCC(=O)O[C@@H]1CC(=O)O[C@H](C)C/C=C/C=C/C(=O)[C@H](C)C[C@H](CC=O)[C@H](O[C@@H]2O[C@H](C)[C@@H](O[C@H]3C[C@@](C)(OC)[C@@H](OCCCC(C)C)[C@H](C)O3)[C@H](N(C)C)[C@H]2O)[C@H]1OC [Compound (43)] | 0.2 (≈ 0.234 µM) | 0.2 (≈ 0.234 µM) | – | 0.39 (≈ 0.457 µM) | > 100 | – | 0.05 (≈ 0.0585 µM) | 0.78 (≈ 0.913 µM) | > 100 | > 100 | 3.13 (≈ 3.66 µM) | > 100 | 12.5 (≈ 14.6 µM) | 0.05 (≈ 0.0585 µM) | > 100 | 1.56 (≈ 1.83 µM) | 1.56 (≈ 1.83 µM) | 1.56 (≈ 1.83 µM) | 1.56 (≈ 1.83 µM) | 1.56 (≈ 1.83 µM) | –
